pEC50: −log10 of the molar value. Like-named read-outs stand apart in the source and are kept apart here.
What was measured:
[1] = test system: G-CSF mRNA; experiment: S1 nuclease protection, G-CSF mRNA; type: cell-based, human
Procedure: S1 Nuclease protection assays were carried out as described in reference 118.
To further confirm, that compounds that had been identified in a luciferase expression assay using a G-CSF specific reporter cell line would be active in inducing transcription of the endogenous G-CSF gene, cells from the parental cell line 5637 used to construct the reporter cell line were incubated with cycloheximide (25 ug/ml), DMSO (0.5%,solvent control) and low, medium and high concentrations of the compounds 542 (10, 50, 250 μM),1255 (20, 100, 500 uM), 1793(0.25, 1.2, 6.25 μM) and 1904 (20, 100 uM) for 18 hours. RNA was extracted and the concentration of G-CSF, GM-CSF and gamma-actin mRNA was determined by the S1 protection method as described in above. The positions of G-CSF GM-CSF and gamma-actin specific protected fragments are indicated (G, GM, A) at the left side of the gel (FIG. 37).

[2] = test system: 5637 bladder carcinoma cells; experiment: G-CSF secretion, two-antibody sandwich immunoassay; type: cell-based, human; details: 48 hours, serum-containing media
Procedure: Supernatants from 5637 bladder carcinoma cells incubated with chemicals registering as positives in the G-CSF promoter/luciferase high throughput assay were assayed for secreted G-CSF protein using the two-antibody sandwich immunoassay (83). The G-CSF Assay kit manufactured by Oncogene Science, Inc. was used and the manufacturer's instructions were followed.
The levels of G-CSF in the cell supernatants were determined by a sandwich-antibody assay as described in above (FIG. 42).

[3] = test system: G-CSF promoter; experiment: G-CSF promoter/luciferase reporter assay (high-throughput screen I), G21 cells; details: for GCSF fold inhibition relative to solvent control: transcriptional inhibitors; for GCSF fold inhibition relative to solvent control / GCSF fold induction relative to solvent control: Table 2, 6 h incubation; for GCSF fold induction relative to solvent control: transcriptional activators; for G-CSF promoter induction: G21, 7 hours, serum-free
[4] = test system: hGH promoter; experiment: hGH promoter/luciferase reporter assay (high-throughput screen I), 532 cells; type: cell-based, rat; details: Table 2, 6 h incubation; for hGH fold inhibition relative to solvent control: transcriptional inhibitors; for hGH fold induction relative to solvent control: transcriptional activators
Excerpt: 6. a GC rat pituitary cell line, transfected with the growth hormone reporter plasmid, designated 532, deposited under ATCC Accession No. CRL 10663.

[5] = test system: MMTV promoter; experiment: MMTV promoter/luciferase reporter assay (high-throughput screen I, control for specificity), M10 cells; type: cell-based, mouse; details: Table 2, 6 h incubation; for MMTV fold inhibition relative to solvent control: transcriptional inhibitors; for MMTV fold induction relative to solvent control: transcriptional activators, original high-throughput assay
[6] = test system: G-CSF promoter; experiment: G-CSF promoter/luciferase induction by known inducers, clone G1002; type: cell-based, human; details: for fold induction at 0.02 µg/mL: Homo sapiens, read-out: G-CSF promoter induction
Procedure: U5637 bladder carcinoma cells were transfected with pGVU150 (FIG. 21) or pGVU140 plus pTKNeo3 either by electroporation using a BRL (Gaithersburg, Md.) Cellporator electroporation device or by lipofection using BRL lipofectin and following the manufacturer's protocol. Clones were analyzed for luciferase expression and those testing positive expanded further and frozen in liquid nitrogen. Further analysis of 6 clones (G1002, G2005, G2071, G2085, G3014, G3031) included Southern blotting, reaction to known inducers, satisfactory attachment to microtiter plates and acceptable standard deviation in multiple luciferase expression assays. Clone G1002 was selected for use in the high throughput screen.
Cell clones with correctly integrated promoter/reporter constructs were analyzed for correct reaction to known transcriptional inducers. […] Both TNF-alpha and PMA induction levels of clone G1002 were influenced by the presence or absence of epidermal growth factor (EGF). […] The 9.3 fold induction by PMA in the absence of EGF was reduced to 5.6 fold by including EGF in the serum-free incubation mixture. Similar differences were observed, when EGF was substituted by 10% fetal calf serum.

[7] = test system: GM-CSF promoter; experiment: GM-CSF promoter/luciferase induction by known inducers, GM1073, GM1088, GM1105; type: cell-based, human
Procedure: 6 clones generated by electroporation of U5637 cells with pGMLL103 NEO3 (FIG. 26) were subjected to further analysis as described above for G-CSF: --GM1073 (10 μg; circular); GM1081, GM1088 and GM1090 (5 μg; linear); and GM1098 and GM1105 (10 μg; linear). Clone GM1073 was selected for use in the high throughput screen.
Promoter induction experiments were also conducted with the GM-CSF reporter cell lines GM1073, GM1088 and GM1105, which were all shown to contain correctly inserted constructs (see above). […] Luciferase expression of clones GM1088 and GM1105 was induced by PMA 2.8 fold and 2 fold, respectively, while TNF-alpha induced both clones 2 fold. All three M-CSF clones responded to a 16-hour incubation with 2,000 units/ml Interferon-gamma by a 20-fold increase of luciferase expression from the M-CSF promoter.

Compound: CN(C)c1ccc(C(=C2C=CC(=[N+](C)C)C=C2)c2ccc(N(C)C)cc2)cc1 [#1780]
- levels of endogenous G-CSF mRNA ([1]; method not stated at the place): stimulate levels of endogenous G-CSF mRNA
- G-CSF secretion [2]: increased G-CSF secretion
- scored as positive in repeat assays (G-CSF) ([3]; 48 independent luciferase assays, same day): scored as positives in every single one of these assays
- activation of the G-CSF promoter (dose response) ([3]; G21 cells): specifically activated the G-CSF promoter
- pEC50 ([3]; read-out: ED50 (concentration of chemical resulting in 50% maximal stimulation), G-CSF reporter cell line G21, range over the three chemicals): 4.15 to 5.30

Compound: Nc1c2ccccc2nc2ccccc12 [#1904]
- amount of G-CSF mRNA (S1 nuclease protection) ([1]; 5637 cells, 18 hours): increased mRNA production

Compound: Nc1c(Br)cc([N+](=O)[O-])cc1[N+](=O)[O-] [Chemical 2010]
- hGH fold inhibition relative to solvent control [4]: 0.63 fold
- MMTV fold inhibition relative to solvent control [5]: 3.57 fold
- GCSF fold inhibition relative to solvent control [3]: 0.80 fold

Compound: COc1c(F)cc(Br)cc1[N+](=O)[O-] [Chemical 2030]
- hGH fold induction relative to solvent control [4]: 0.67 fold
- MMTV fold induction relative to solvent control [5]: 0.87 fold
- GCSF fold induction relative to solvent control [3]: 5.53 fold

Compound: O=C(O)c1ccc(Br)o1 [Chemical 2035]
- hGH fold inhibition relative to solvent control [4]: 7.14 fold
- MMTV fold inhibition relative to solvent control [5]: 0.89 fold
- GCSF fold inhibition relative to solvent control [3]: 0.57 fold

Compound: Nc1nc2c(nc(Br)n2[C@@H]2O[C@H](CO)[C@@H](O)[C@H]2O)c(=O)[nH]1 [Chemical 2036]
- hGH fold inhibition relative to solvent control [4]: 4.34 fold
- MMTV fold inhibition relative to solvent control [5]: 0.81 fold
- GCSF fold inhibition relative to solvent control [3]: 0.58 fold

Compound: CCCCCCCCCCCCCCCCBr [Chemical 2037]
- hGH fold inhibition relative to solvent control [4]: 4.00 fold
- MMTV fold inhibition relative to solvent control [5]: 0.50 fold
- GCSF fold inhibition relative to solvent control [3]: 0.51 fold

Compound: COc1cc2oc(=O)cc(CBr)c2cc1OC [Chemical 2064]
- hGH fold induction relative to solvent control [4]: 1.10 fold
- MMTV fold induction relative to solvent control [5]: 2.53 fold
- GCSF fold induction relative to solvent control [3]: 0.82 fold

Compound: Cc1n[nH]cc1Br [Chemical 2082]
- hGH fold inhibition relative to solvent control [4]: 0.65 fold
- MMTV fold inhibition relative to solvent control [5]: 1.23 fold
- GCSF fold inhibition relative to solvent control [3]: 5.26 fold

Compound: CC(CCl)CBr (stereo not shown) [Chemical 2096]
- hGH fold induction relative to solvent control [4]: 0.61 fold
- MMTV fold induction relative to solvent control [5]: 0.89 fold
- GCSF fold induction relative to solvent control [3]: 3.27 fold

Compound: ClCCCCCBr [Chemical 2097]
- hGH fold induction relative to solvent control [4]: 0.88 fold
- MMTV fold induction relative to solvent control [5]: 1.22 fold
- GCSF fold induction relative to solvent control [3]: 5.09 fold

Compound: OCc1cccc(Cl)c1 [Chemical 2121]
- hGH fold inhibition relative to solvent control [4]: 0.40 fold
- MMTV fold inhibition relative to solvent control [5]: 1.14 fold
- GCSF fold inhibition relative to solvent control [3]: 4.76 fold

Compound: ClCc1ccc(Cl)cc1 [Chemical 2129]
- hGH fold induction relative to solvent control [4]: 0.75 fold
- MMTV fold induction relative to solvent control [5]: 0.95 fold
- GCSF fold induction relative to solvent control [3]: 3.23 fold

Compound: O=C1CCCCC1Cl (stereo not shown) [Chemical 2148]
- hGH fold induction relative to solvent control [4]: 0.92 fold
- MMTV fold induction relative to solvent control [5]: 2.82 fold
- GCSF fold induction relative to solvent control [3]: 0.45 fold

Compound: O=C(N[C@H](CO)[C@H](O)c1ccc([N+](=O)[O-])cc1)C(Cl)Cl [Chemical 2191]
- hGH fold induction relative to solvent control [4]: 0.35 fold
- MMTV fold induction relative to solvent control [5]: 7.32 fold
- GCSF fold induction relative to solvent control [3]: 0.37 fold

Compound: CC(=O)n1ccnc1 [Chemical #58, 1-Acetylimidazole]
- hGH fold induction relative to solvent control [4]: 0.17 fold
- MMTV fold induction relative to solvent control [5]: 0.42 fold
- GCSF fold induction relative to solvent control [3]: 6.03 fold

Compound: Nc1nc(=O)n([C@H]2C[C@H](O)[C@@H](CO)O2)cc1Br [Chemical #542, 5-Bromo-2'-deoxycytidine]
- hGH fold induction relative to solvent control [4]: 1.08 fold
- MMTV fold induction relative to solvent control [5]: 1.26 fold
- GCSF fold induction relative to solvent control [3]: 6.28 fold

Compound: O=c1[nH]c(=O)n([C@H]2C[C@H](O)[C@@H](CO)O2)cc1Br [Chemical #543, 5-Bromo-2'-deoxyuridine]
- hGH fold induction relative to solvent control [4]: 0.72 fold
- MMTV fold induction relative to solvent control [5]: 0.98 fold
- GCSF fold induction relative to solvent control [3]: 7.17 fold

Compound: CC(=O)N(C)c1ccc(N)cc1 [Chemical #1374, 4'-Amino-N-methyl-acetanilide]
- hGH fold induction relative to solvent control [4]: 0.05 fold
- MMTV fold induction relative to solvent control [5]: 1.05 fold
- GCSF fold induction relative to solvent control [3]: 11.03 fold

Compound: CN(C)c1ccc(C(=C2C=CC(=[N+](C)C)C=C2)c2ccc(N(C)C)cc2)cc1 [Chemical #1780, Crystal Violet]
- hGH fold induction relative to solvent control [4]: 0.38 fold
- MMTV fold induction relative to solvent control [5]: 1.15 fold
- GCSF fold induction relative to solvent control [3]: 20.39 fold

Compound: O=NN(O)c1ccccc1 [Chemical #1783, Cupferron]
- hGH fold induction relative to solvent control [4]: 0.32 fold
- MMTV fold induction relative to solvent control [5]: 0.89 fold
- GCSF fold induction relative to solvent control [3]: 6.55 fold

Compound: CCCCCCCCCCCCCC(=O)O[C@@H]1[C@@H](C)[C@@]2(O)[C@@H](C=C(CO)C[C@]3(O)C(=O)C(C)=C[C@@H]23)[C@@H]2C(C)(C)[C@]12OC(C)=O [PMA, phorbol-myristate-acetate, reference compound]
- G-CSF promoter induction ([6]; G1002, 7 hours, serum-free, absence of EGF): 9.3 fold
- fold induction at 0.02 µg/mL ([6]; 7 h): 5.6
- fold induction at 0.02 µg/mL ([6]; 10.5 h): 4.4
- GM-CSF promoter induction ([7]; GM1073, serum-free media): 7.5 fold
- fold induction at 0.02 µg/mL ([7]; Homo sapiens, GM1073, 20 ng/ml, 10.5 hours, serum-containing media): 3.4
- GM-CSF promoter induction ([7]; clone GM1088): 2.8 fold
- GM-CSF promoter induction ([7]; clone GM1105): 2 fold
- G-CSF promoter induction ([3]; absence of EGF): 34.6 fold
- G-CSF promoter induction ([3]; presence of EGF): 24.6 fold

Compound: Interleukin-1 beta: Interleukin-1 beta, known transcriptional inducer
- G-CSF promoter induction ([6]; G1002, 0.5 ng/ml, 10.5 hours, serum-containing media): 2.6 fold

Reference: US5846720A, “Methods of determining chemicals that modulate expression of genes associated with cardiovascular disease” (Oncogene Science, Inc., priority 1996, dated 1998)
